Like-named read-outs stand apart in the source and are kept apart here.

Here are results for four molecules from article PMC10709440, “High-throughput ligand profile characterization in novel cell lines expressing seven heterologous insect olfactory receptors for the detection of volatile plant biomarkers” (Scientific Reports, 2023).

The target of one test is OR85b receptor. To be noted: cited from earlier work.
The next test has as its target T1, Drosophila OR10a (Drosophila melanogaster, UniProt Q9VYZ1).
T1 construct: expressed in transfected cells
T1 sequence (Q9VYZ1 1-406): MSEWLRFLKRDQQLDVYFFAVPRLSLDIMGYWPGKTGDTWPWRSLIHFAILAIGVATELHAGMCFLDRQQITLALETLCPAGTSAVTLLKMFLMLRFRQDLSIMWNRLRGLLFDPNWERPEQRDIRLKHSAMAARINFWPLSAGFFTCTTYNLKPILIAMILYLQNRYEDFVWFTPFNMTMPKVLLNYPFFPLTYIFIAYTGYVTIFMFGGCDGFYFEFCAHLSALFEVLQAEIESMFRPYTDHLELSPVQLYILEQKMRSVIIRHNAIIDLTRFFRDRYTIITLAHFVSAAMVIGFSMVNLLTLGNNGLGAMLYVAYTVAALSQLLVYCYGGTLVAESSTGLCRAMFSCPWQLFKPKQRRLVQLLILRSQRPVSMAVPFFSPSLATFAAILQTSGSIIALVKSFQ
T1 sequence (Q9VNB5 1-486 partner): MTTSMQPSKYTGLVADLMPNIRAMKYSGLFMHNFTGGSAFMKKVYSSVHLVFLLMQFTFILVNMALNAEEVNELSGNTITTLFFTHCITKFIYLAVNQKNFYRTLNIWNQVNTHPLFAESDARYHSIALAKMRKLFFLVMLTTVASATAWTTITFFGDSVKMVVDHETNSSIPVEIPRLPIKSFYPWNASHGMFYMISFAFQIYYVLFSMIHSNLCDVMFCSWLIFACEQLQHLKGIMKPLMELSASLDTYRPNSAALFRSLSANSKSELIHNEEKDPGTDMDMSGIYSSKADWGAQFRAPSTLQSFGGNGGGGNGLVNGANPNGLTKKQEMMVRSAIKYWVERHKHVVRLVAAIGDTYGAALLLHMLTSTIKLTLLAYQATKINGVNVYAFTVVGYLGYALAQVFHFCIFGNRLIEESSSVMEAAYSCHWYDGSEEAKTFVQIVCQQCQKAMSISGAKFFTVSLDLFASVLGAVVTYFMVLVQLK
Kind of test: cell-based. Details: GCaMP6 calcium fluorescence in stable HEK293 OR+ORCO lines; peak dF normalised to 50 uM VUAA1 (=1). The following applies: HEK293; relative to 50 uM VUAA1 response; below 0.05 set to 0; read-out: % activation. The method in brief: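 Responses to VOCs (1, 10, 100 µM final) were read as fluorescence rise over baseline for 30 s in cells expressing the OR after 48–72 h doxycycline induction, in pH 7.3 buffer. ΔF values were divided by the same line's mean ΔF to 50 µM VUAA1 on that plate. Data are means of replicate days.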

Test [1] concerns OR13a. To be noted: insect cell line stably expressing OR13a; read-out: EC50 of concentration-dependent Ca2+ signals; cited from earlier work.
The test system of test [2] is OR13a. To be noted: Bactrocera dorsalis OR13a in HEK293 cells; read-out: EC50 in fluorescent measurements; cited from earlier work.
Test [3] concerns OR13a. The following applies: Bactrocera dorsalis OR13a; read-out: EC50 in electrophysiology; cited from earlier work.
For another test, the system named is OR47a. The following applies: similar system to Xenopus oocytes, cited from earlier work.

For the molecule `CCCCCC(C)=O` [2-heptanone], the EC50 on OR85b receptor (OR85b in Xenopus oocytes, Nichols and Luetje, read-out: EC50) is 70 ± 20 µM; at OR85b receptor (OR85b, Misawa et al., read-out: average EC50) it was 45.6 µM.
For `CC/C=C/CCO` [e3-hexenol], on Drosophila OR10a, the activity at 1 µM was found to be 0%, the activity at 10 µM worked out at 0% and the activity at 100 µM is 7.4%.
For the molecule `C=CC(O)CCCCC` (stereo not shown) [1-octen-3-ol], the EC50 in the test with OR13a [1] is 4.33 µM; with OR13a [2] it was 11.3 µM; with OR13a [3] it was 1270 nM.
As to `CCCCCOC(C)=O` [pentyl acetate], the EC50 was 30.8 ± 1.28 µM in the test with OR47a (ref 34, read-out: calculated EC50) and 10.7 ± 2 µM with OR47a (ref 39, read-out: calculated EC50).
